This note sets out measurements from patent US6992089B2, “Nitro and amino substituted topoisomerase agents” (Rutgers, The University of New Jersey, priority 2002, dated 2006).

Each structure is given as a SMILES string. Read-outs that look alike come from different tables or passages of the source.

One series has as its system RPMI 8402. As to the kind of experiment: Test B: MTT-microtiter plate tetrazolinium cytotoxicity assay, RPMI 8402. As to conditions: Homo sapiens, RPMI 8402, 96 h, read-out: Cytotoxicity IC50 RPMI 8402. The class given is cell-based. How it is done:
(§1) The cytotoxicity was determined using the MTT-microtiter plate tetrazolinium cytotoxicity assay (MTA—See Mosmann, T., J. Immunol. Methods 1983, 65, 55-63; Carmichael, J., et al., Cancer Res. 1987, 47, 936-942; and Denizot, F., et al., J. Immunol. Methods 1986, 89, 271-277). […] The cytotoxicity assay was performed using 96-well microtiter plates. Cells were grown in suspension at 37° C. in 5% CO2 and maintained by regular passage in RPMI medium supplemented with 10% heat-inactivated fetal bovine serum, L-glutamine (2 mM), penicillin (100 U/mL), and streptomycin (0.1 mg/mL). […] For determination of IC50, cells were exposed continuously for 4 days to varying concentrations of drug, and MTT assays were performed at the end of the fourth day. […] All assays were performed at least twice in 6 replicate wells.

For the next series, the system named is P388. As to the kind of experiment: MTT cytotoxicity assay, P388. It counts as cell-based. The conditions noted are these: Mus musculus, P388, 96 h, read-out: Cytotoxicity IC50 P388. As for the experimental part:
as §1
In general terms: Formazan colour is commonly taken as a measure of viable cells.

The next series has as its system P388/CPT45. Briefly: MTT cytotoxicity assay, P388/CPT45. It counts as cell-based. As to conditions: Mus musculus, P388CPT45, 96 h, read-out: Cytotoxicity IC50 P388/CPT45. How it is done:
as §1

For the next series, the target named is T1, human topoisomerase I (Homo sapiens, UniProt P11387).
T1 construct: unnamed fusion partner (recombinant fusion protein, T7 expression system); made in house; host or cells: E. coli
T1 sequence (P11387 1-765): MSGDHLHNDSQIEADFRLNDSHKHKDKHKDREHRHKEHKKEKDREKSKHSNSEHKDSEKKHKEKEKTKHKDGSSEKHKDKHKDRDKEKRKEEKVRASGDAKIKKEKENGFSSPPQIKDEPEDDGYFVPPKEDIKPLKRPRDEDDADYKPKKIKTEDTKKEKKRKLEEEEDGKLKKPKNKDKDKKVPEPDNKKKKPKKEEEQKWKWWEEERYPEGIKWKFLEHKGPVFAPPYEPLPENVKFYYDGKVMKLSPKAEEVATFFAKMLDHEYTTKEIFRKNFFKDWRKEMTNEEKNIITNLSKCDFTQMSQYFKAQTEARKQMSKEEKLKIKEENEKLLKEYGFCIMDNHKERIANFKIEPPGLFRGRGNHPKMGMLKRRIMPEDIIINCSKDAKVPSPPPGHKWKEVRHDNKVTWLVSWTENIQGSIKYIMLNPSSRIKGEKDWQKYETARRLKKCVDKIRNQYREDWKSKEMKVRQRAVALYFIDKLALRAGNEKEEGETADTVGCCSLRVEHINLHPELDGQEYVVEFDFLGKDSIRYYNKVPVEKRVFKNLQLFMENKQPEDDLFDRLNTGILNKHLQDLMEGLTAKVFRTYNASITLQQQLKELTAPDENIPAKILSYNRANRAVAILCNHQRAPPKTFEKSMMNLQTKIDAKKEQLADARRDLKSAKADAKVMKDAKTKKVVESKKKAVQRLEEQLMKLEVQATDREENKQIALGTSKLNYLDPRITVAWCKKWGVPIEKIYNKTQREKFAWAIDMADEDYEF
Briefly: Test A: topoisomerase I-mediated DNA cleavage assay. It counts as biochemical. As to conditions: concentration relative to topotecan (=1) producing the same cleavage on plasmid DNA in presence of human TOP1. The text has this:
Test A. Topoisomerase-Mediated DNA Cleavage Assays
Human topoisomerase I was expressed in E. Coli and isolated as a recombinant fusion protein using a T7 expression system as described by Gatto, B., et al., Cancer Res. 1996, 56, 2795-2800. Plasmid YepG was purified by the alkali lysis method followed by phenol deproteination and CsCl/ethidium isopycnic centrifugation method as described by Maniatis, T., et al., J. Molecular Cloning, a Laboratory Manual; Cold Spring Harbor Laboratory: Cold Spring Harbor, N.Y. 1982; pp 149-185. The end-labeling of the plasmid was accomplished by digestion with a restriction enzyme followed by end-filling with Klenow polymerase as previously described by Tewey, K. M., et al., Science 1984, 226, 466-468. The cleavage assays were performed as previously reported (see Gatto, B., et al., Cancer Res. 1996, 56, 2795-2800; and Wang, H., et al., Biochemistry 2001, 40; 3316-3323). The drug and the DNA in presence of topoisomerase I was incubated for 30 minutes at 37° C. The reactions were terminated by the addition of 5 μl of 5% SDS and 1 mg/ml […] with an additional 1 hour of incubation at 37° C. Samples were then alkali denatured by the addition of NaOH, EDTA, sucrose, and bromophenol blue to final concentrations of 75 mM, 2.5%, and 0.05 mg/ml, respectively, prior to loading onto a neutral agarose gel. After development of the gels, typically 24-hour exposure was used to obtain autoradiograms outlining the extent of DNA fragmentation.

For another series, the system named is CPT-K5. Briefly: Test B: MTT-microtiter plate tetrazolinium cytotoxicity assay, CPT-K5 (camptothecin-resistant variant). The class given is cell-based. The conditions noted are these: Homo sapiens, CPT-K5, 96 h, read-out: Cytotoxicity IC50 CPT-K5. As for the experimental part: as §1

For the molecule `CC[C@@]1(O)C(=O)OCc2c1cc1n(c2=O)Cc2cc3ccccc3nc2-1` [CPT, Camptothecin, reference compound], the IC50 with RPMI 8402 (4 days of continuous drug exposure, MTT) was 5 nM; in the series on P388 (4 days of continuous drug exposure) it was 9 nM; in the series on P388/CPT45 it was > 10000 nM.

One may read the melting point as the temperature, or range, at which the solid turns liquid. `COc1cc2c(=O)n(CCN(C)C)c3c4cccc([N+](=O)[O-])c4ncc3c2cc1OC` [Compound 3a, 8,9-Dimethoxy-1-nitro-5-[2-(N,N-dimethylamino)ethyl]-5H-dibenzo[c,h][1,6]naphthyridin-6-one] yielded a melting point of 257 to 258 °C. Also, the “TOP1-mediated DNA Cleavage (REC, relative effective concentration)” value on human topoisomerase I was found to be 9. Further, in the series on RPMI 8402, the IC50 was 220 nM. In the series on CPT-K5, the IC50 turned out to be 3000 nM. The IC50 with P388 is 190 nM. The IC50 with P388/CPT45 was 2100 nM.

In the case of `COc1cc2c(=O)n(CCN(C)C)c3c4ccc([N+](=O)[O-])cc4ncc3c2cc1OC` [Compound 3b, 8,9-Dimethoxy-2-nitro-5-[2-(N,N-dimethylamino)ethyl]-5H-dibenzo[c,h][1,6]naphthyridin-6-one], the melting point is 214 to 217 °C. In addition, at human topoisomerase I, the “TOP1-mediated DNA Cleavage (REC, relative effective concentration)” value was 6. In addition, the IC50 in the series with RPMI 8402 came out at 75 nM. Also, the IC50 in the series with CPT-K5 was 3350 nM. Also, in the series with P388, the IC50 came out at 30 nM. Moreover, the IC50 in the series on P388/CPT45 is 340 nM.

`COc1cc2c(=O)n(CCN(C)C)c3c4cc([N+](=O)[O-])ccc4ncc3c2cc1OC` [Compound 3c, 8,9-Dimethoxy-3-nitro-5-[2-(N,N-dimethylamino)ethyl]-5H-dibenzo[c,h][1,6]naphthyridin-6-one] had a melting point of 232 to 234 °C. The “TOP1-mediated DNA Cleavage (REC, relative effective concentration)” value on human topoisomerase I is given as 2. For the same molecule, the IC50 with RPMI 8402 is 18 nM. Further, the IC50 with CPT-K5 was determined as 800 nM. The IC50 in the series with P388 amounted to 40 nM. For the same molecule, the IC50 in the series on P388/CPT45 worked out at 200 nM.

With `COc1cc2c(=O)n(CCN(C)C)c3c(cnc4cccc([N+](=O)[O-])c43)c2cc1OC` [Compound 3d, 8,9-Dimethoxy-4-nitro-5-[2-(N,N-dimethylamino)ethyl]-5H-dibenzo[c,h][1,6]-naphthyridin-6-one], the melting point was in the range of 194 to 195 °C. Besides, at human topoisomerase I, the “TOP1-mediated DNA Cleavage (REC, relative effective concentration)” value was >300. For the same molecule, the IC50 with RPMI 8402 was 5500 nM. Also, in the series with CPT-K5, the IC50 was determined as 11500 nM. Further, the IC50 in the series with P388 turned out to be 6000 nM. In addition, the IC50 in the series with P388/CPT45 worked out at 7000 nM.

As to `COc1cc2c(=O)n(CCN(C)C)c3c4cccc(N)c4ncc3c2cc1OC` [Compound 4a, 1-Amino-8,9-dimethoxy-5-[2-(N,N-dimethylamino)ethyl]-5H-dibenzo[c,h][1,6]naphthyridin-6-one], the melting point was in the range of 226 to 229 °C. In addition, the “TOP1-mediated DNA Cleavage (REC, relative effective concentration)” value on human topoisomerase I stood at 100. The IC50 with RPMI 8402 was found to be 650 nM. In addition, the IC50 in the series on CPT-K5 stood at 2000 nM. Besides, the IC50 in the series on P388 came out at 350 nM. Moreover, the IC50 in the series with P388/CPT45 was determined as 210 nM.

The molecule `COc1cc2c(=O)n(CCN(C)C)c3c4ccc(N)cc4ncc3c2cc1OC` [Compound 4b, 2-Amino-8,9-dimethoxy-5-[2-(N,N-dimethylamino)ethyl]-5H-dibenzo[c,h][1,6]naphthyridin-6-one] displayed a melting point of 208 to 210 °C. On human topoisomerase I, the “TOP1-mediated DNA Cleavage (REC, relative effective concentration)” value was 12. In addition, in the series on RPMI 8402, the IC50 stood at 100 nM. In the series on CPT-K5, the IC50 came to 2100 nM. Moreover, in the series on P388, the IC50 was 60 nM. The IC50 with P388/CPT45 was 230 nM.

`COc1cc2c(=O)n(CCN(C)C)c3c4cc(N)ccc4ncc3c2cc1OC` [Compound 4c, 3-Amino-8,9-dimethoxy-5-[2-(N,N-dimethylamino)ethyl]-5H-dibenzo[c,h][1,6]naphthyridin-6-one] registered a melting point of 213 to 215 °C. Besides, the “TOP1-mediated DNA Cleavage (REC, relative effective concentration)” value on human topoisomerase I stood at 6. For the same molecule, the IC50 in the series on RPMI 8402 was 40 nM. Besides, in the series with CPT-K5, the IC50 was found to be 1350 nM. Moreover, in the series with P388, the IC50 amounted to 20 nM. Besides, in the series with P388/CPT45, the IC50 stood at 330 nM.

In turn, `COc1cc2c(=O)n(CCN(C)C)c3c(cnc4cccc(N)c43)c2cc1OC` [Compound 4d, 4-Amino-8,9-dimethoxy-5-[2-(N,N-dimethylamino)ethyl]-5H-dibenzo[c,h][1,6]-naphthyridin-6-one] had a melting point of 239 to 241 °C. Also, the “TOP1-mediated DNA Cleavage (REC, relative effective concentration)” value on human topoisomerase I is on record as >300. The IC50 in the series with RPMI 8402 was determined as 4000 nM. Further, in the series with CPT-K5, the IC50 was 8000 nM. Besides, in the series with P388, the IC50 came out at 3000 nM. Also, in the series on P388/CPT45, the IC50 is 3500 nM.

As to `COc1cc2c(=O)n(CCN(C)C)c3c4ccccc4ncc3c2cc1OC` [Compound 5, 8,9-Dimethoxy-5-[2-(N,N-dimethylamino)ethyl]-5H-dibenzo[c,h]1,6-naphthyridin-6-one, reference compound], the “TOP1-mediated DNA Cleavage (REC, relative effective concentration)” value on human topoisomerase I is on record as 10. Moreover, the IC50 was determined as 100 nM in the series with RPMI 8402, 1650 nM in the series with CPT-K5, 70 nM in the series with P388 and 300 nM in the series on P388/CPT45.

In the case of `COc1cc2c(=O)n(CCN(C)C)c3c4cc([N+](=O)[O-])ccc4nnc3c2cc1OC` [Compound 12a, 11-(2-Dimethylaminoethyl)-2,3-dimethoxy-9-nitro-11H-5,6,11-triazachrysen-12-one], the melting point was 262 to 264 °C (dec.). The IC50 with RPMI 8402 was 3 nM. For the same molecule, the IC50 with CPT-K5 worked out at 3300 nM.

Regarding `COc1cc2c(=O)n(CCN(C)C)c3c4ccccc4nnc3c2cc1OC` [Compound 12b, 11-(2-Dimethylaminoethyl)-2,3-dimethoxy-11H-5,6,11-triazachrysen-12-one, reference compound], the results for the IC50 in the series on RPMI 8402 and in the series on CPT-K5 were 18 nM and 1500 nM, respectively.

As for `CC[C@@]1(O)C(=O)OCc2c1cc1n(c2=O)Cc2cc3c(CN(C)C)c(O)ccc3nc2-1` [Topotecan, reference compound], the “TOP1-mediated DNA Cleavage (REC, relative effective concentration)” value at human topoisomerase I was determined as 1. For the same molecule, the IC50 in the series on CPT-K5 is > 50000 nM; in the series on P388, 35 nM; in the series with P388/CPT45, > 10000 nM.

On to `COc1cc([C@@H]2c3cc4c(cc3[C@@H](O[C@@H]3O[C@@H]5CO[C@@H](c6cccs6)O[C@H]5[C@H](O)[C@H]3O)[C@H]3COC(=O)[C@H]23)OCO4)cc(OC)c1O` [VM-26, teniposide, reference compound], for which, in the series on CPT-K5, the IC50 was determined as 280 nM.
